According to PubChem BioAssay (NCI):
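Values below derive from 48-hour exposures of cells grown in 96-well plates, with endpoints linearly interpolated between the two concentrations bracketing the appropriate inhibition level. Abbreviation: GI50, concentration required for 50% inhibition of growth. TGI is the concentration that stops growth completely.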

Assays:
Experiment in all cases: NCI-60 cell line screen, 48 h
[1] = test system: CCRF-CEM leukemia
[2] = test system: MALME-3M melanoma
[3] = test system: HCC-2998 colon
[4] = test system: 786-0 renal
[5] = test system: SNB-75 CNS
[6] = test system: SK-OV-3 ovarian
[7] = test system: HOP-92 NSCLC
[8] = test system: OVCAR-8 ovarian
[9] = test system: T-47D breast
[10] = test system: SN12C renal
[11] = test system: HS 578T breast
[12] = test system: NCI-H460 lung
[13] = test system: PC-3 prostate
[14] = test system: SF-295 CNS
[15] = test system: SF-268 CNS
[16] = test system: MDA-MB-435
[17] = test system: SF-539 CNS
[18] = test system: SK-MEL-2 melanoma
[19] = test system: ACHN renal
[20] = test system: K-562 leukemia
[21] = test system: A498 renal
[22] = test system: KM12 colon
[23] = test system: HL-60(TB) leukemia
[24] = test system: NCI-H226 lung
[25] = test system: MCF7 breast
[26] = test system: SK-MEL-5 melanoma
[27] = test system: EKVX NSCLC
[28] = test system: HT29 colon
[29] = test system: UACC-62 melanoma
[30] = test system: SR leukemia
[31] = test system: SW-620 colon
[32] = test system: BT-549 breast
[33] = test system: M14 melanoma
[34] = test system: MDA-MB-231 breast
[35] = test system: IGROV1 ovarian
[36] = test system: RPMI-8226 leukemia
[37] = test system: LOX IMVI melanoma
[38] = test system: A549 NSCLC
[39] = test system: OVCAR-4 ovarian
[40] = test system: CAKI-1 renal
[41] = test system: OVCAR-5 ovarian
[42] = test system: DU-145 prostate
[43] = test system: UACC-257 melanoma
[44] = test system: UO-31 renal
[45] = test system: TK-10 renal
[46] = test system: SK-MEL-28 melanoma
[47] = test system: U251 CNS
[48] = test system: SNB-19 CNS
[49] = test system: OVCAR-3 ovarian
[50] = test system: NCI-H23 lung
[51] = test system: RXF 393 renal
[52] = test system: MOLT-4 leukemia
[53] = test system: HCT-116 colon
[54] = test system: NCI-H522 lung
[55] = test system: HOP-62 NSCLC
[56] = test system: NCI/ADR-RES ovarian
[57] = test system: COLO 205 colon
[58] = test system: HCT-15 colon

SMILES: CNCCN(C)c1ccc(Nc2cc(NC3CC3)n3ncc(C#N)c3n2)cc1NC(C)=O
- GI50 [1]: < 10 nM
- TGI [1]: 6000 nM
- GI50 [2]: 16.6 nM
- TGI [2]: 3180 nM
- GI50 [3]: 17.5 nM
- TGI [3]: 16400 nM
- GI50 [4]: 43.6 nM
- TGI [4]: 13500 nM
- GI50 [5]: < 10 nM
- TGI [5]: 51.9 nM
- GI50 [6]: 35.7 nM
- TGI [6]: 668 nM
- GI50 [7]: < 10 nM
- TGI [7]: 46.6 nM
- GI50 [8]: 59.2 nM
- TGI [8]: > 100000 nM
- GI50 [9]: < 10 nM
- TGI [9]: 1340 nM
- GI50 [10]: 75.2 nM
- TGI [10]: > 64200 nM
- GI50 [11]: < 10 nM
- TGI [11]: 117 nM
- GI50 [12]: < 10 nM
- TGI [12]: 12400 nM
- GI50 [13]: < 10 nM
- TGI [13]: 13200 nM
- GI50 [14]: 27.7 nM
- TGI [14]: 12500 nM
- GI50 [15]: 18.2 nM
- TGI [15]: 16400 nM
- GI50 [16]: 16.1 nM
- TGI [16]: > 41100 nM
- GI50 [17]: 14 nM
- TGI [17]: 2360 nM
- GI50 [18]: 20.2 nM
- TGI [18]: 445 nM
- GI50 [19]: 73 nM
- TGI [19]: 15400 nM
- GI50 [20]: < 13.8 nM
- TGI [20]: > 40100 nM
- GI50 [21]: < 11.7 nM
- TGI [21]: < 26 nM
- GI50 [22]: 25.9 nM
- TGI [22]: > 80100 nM
- GI50 [23]: < 10 nM
- TGI [23]: 498 nM
- GI50 [24]: < 10 nM
- TGI [24]: 1230 nM
- GI50 [25]: < 10 nM
- TGI [25]: 1590 nM
- GI50 [26]: < 10 nM
- TGI [26]: 462 nM
- GI50 [27]: < 13 nM
- TGI [27]: 4040 nM
- GI50 [28]: < 10 nM
- TGI [28]: > 100000 nM
- GI50 [29]: 19.5 nM
- TGI [29]: 149 nM
- GI50 [30]: < 10 nM
- TGI [30]: 5730 nM
- GI50 [31]: < 10 nM
- TGI [31]: 209 nM
- GI50 [32]: < 14 nM
- TGI [32]: 165 nM
- GI50 [33]: < 11.8 nM
- TGI [33]: 452 nM
- GI50 [34]: < 10 nM
- TGI [34]: 2170 nM
- GI50 [35]: < 10.7 nM
- TGI [35]: 961 nM
- GI50 [36]: < 10 nM
- TGI [36]: 2640 nM
- GI50 [37]: 20.4 nM
- TGI [37]: 390 nM
- GI50 [38]: 18.8 nM
- TGI [38]: 12500 nM
- GI50 [39]: < 10 nM
- TGI [39]: > 39200 nM
- GI50 [40]: 12.3 nM
- TGI [40]: 153 nM
- GI50 [41]: < 10 nM
- TGI [41]: > 28500 nM
- GI50 [42]: 45.2 nM
- TGI [42]: > 100000 nM
- GI50 [43]: 16.3 nM
- TGI [43]: 10700 nM
- GI50 [44]: 143 nM
- TGI [44]: 3790 nM
- GI50 [45]: < 10 nM
- TGI [45]: 45.3 nM
- GI50 [46]: 39.3 nM
- TGI [46]: 18600 nM
- GI50 [47]: < 10 nM
- TGI [47]: > 100000 nM
- GI50 [48]: < 10 nM
- TGI [48]: > 100000 nM
- GI50 [49]: < 10 nM
- TGI [49]: 869 nM
- GI50 [50]: < 10 nM
- TGI [50]: 237 nM
- GI50 [51]: 10 nM
- TGI [51]: 34.2 nM
- GI50 [52]: 18.6 nM
- GI50 [53]: < 10 nM
- TGI [53]: 195 nM
- GI50 [54]: < 10 nM
- TGI [54]: 1130 nM
- GI50 [55]: 27.5 nM
- TGI [55]: > 54400 nM
- GI50 [56]: 3360 nM
- TGI [56]: > 100000 nM
- GI50 [57]: < 10 nM
- TGI [57]: 2330 nM
- GI50 [58]: 290 nM
- TGI [58]: > 100000 nM
